The test system of one data set is HCV Replicon. The data set is described as follows: HCV Replicon Luciferase Assay. It counts as cell-based, Hepatitis C virus. The settings on record: Hepatitis C virus; Huh-Luc-Neo cells, 48 h incubation, luciferase reporter; read-out: Replicon Inhibition*, Luciferase. The protocol:
The identification of inhibitors of HCV replication and/or proliferation has been facilitated by the development of a cell-based system to study HCV replication. Inhibition of HCV replication may be performed using the HCV Replicon Assay developed in the laboratories of Bartenschlager (Lohman et al, Science 285, 110-113, 1999) and Rice (Blight et al, Science 290, 1972-1974, 2000). The assay is performed using the Huh-Luc-Neo cell line (Lohman et al, Science 285, 110-113, 1999). Huh-Luc-Neo cells are a human hepatoma cell line (Huh-7) stably expressing a bi-cistronic subgenomic replicon containing the HCV IRES in which the structural proteins of HCV have been deleted and replaced by a construct containing sequences coding for the firefly luciferase reporter gene, the neomycin selectable marker and the EMCV IRES to direct expression of a truncated HCV genome expressing the […] NS3, NS4A, NS4B, NS5A, and NS5B. HCV targets through which inhibitors could act to inhibit replication include the NS3 protease, the helicase/ATPase, NS5A, the NS5B-RNA dependent RNA polymerase, and the HCV IRES.
(§1) Expression of HCV IRES driven luciferase reporter activity and HCV RNA is measured to obtain indirect and direct measures of replication of HCV RNA respectively. Inhibitors of HCV replication and/or proliferation are determined by initially identifying molecules that inhibit expression of the HCV IRES driven luciferase reporter in this HCV Replicon Luciferase Assay. Cell viability assays and control cell based luciferase assays are then run on hits identified in the HCV Replicon Luciferase Assay to eliminate cytoxic compounds and non-specific compounds which act by inhibiting the luciferase enzyme.
Day 0, Cell Seeding and Compound Treatment: Huh-Luc-Neo Cells are seeded at 25,000/well in an opaque-walled 96 plate with Growth Medium (DMEM phenol red free+PS+2 mM glutamine; 100 μl/well). The compounds to be tested are added to the experimental wells (10 μl/well at 10× assay concentration) and the cells are then incubated (5% CO2, 37° C.) for 48 h.
Day 2, Reagent Preparation and Luciferase Assay: The Bright-Glo Luciferase Assay Buffer (Promega) is thawed and equilibrated to room temperature prior to use. The lyophilized Bright-Glo Luciferase Assay Substrate is equilibrated to room temperature prior to use. 10 ml of Bright-Glo Luciferase Assay Buffer is transferred to 1 vial of Bright-Glo Luciferase Assay Substrate bottle and mixed by gently with a Vortex. 100 μl of Bright-Glo Luciferase Assay reagent (Bright-Glo Luciferase Assay Buffer+Bright-Glo Luciferase Assay Substrate Mixture) is added to each well. The well contents are mixed for 5 min. on an orbital shaker at room temperature to induce cell lysis and the luminescence is then measured using a luminometer. The data is analyzed and IC50s are determined using GraphPad Prism 4 software. Hits validated in the Replicon Luciferase assay have IC50s<8.0 μM and show <30% inhibition of Cell Viability at a compound concentration of 100 μM (Cell Titer Glow Assay, cell viability assay conditions identical to HCV Replicon Luciferase Assay conditions).
For orientation: Replicon systems follow genome replication, usually without infectious particles.

The test system of the next data set is HCV RNA. The data set is described as follows: HCV Replicon RNA Assay (Taqman). The format is cell-based, Hepatitis C virus. The settings on record: Hepatitis C virus; Huh-Luc-Neo cells, compound re-added at 24 h, HCV RNA by quantitative PCR; read-out: Replicon Inhibition*, Taqman. The protocol:
as §1
Day 0, Cell Seeding and Compound Treatment: Huh-Luc-Neo Cells are seeded at 25,000/well in an opaque-walled 96 plate with Growth Medium (DMEM phenol red free+PS+2 mM glutamine; 100 μl/well). The compounds to be tested are added to the experimental wells (10 μl/well at 10× assay concentration) and the cells are then incubated (5% CO2, 37° C.).
Day 1, Media Change and Compound Treatment: 24 hours after the initial compound treatment the cell culture media is aspirated from the wells and fresh Growth Medium is added (DMEM phenol red free+PS+2 mM glutamine; 100 μl/well). The compounds to be tested are then added to the appropriate experimental wells (10 μl/well at 10× assay concentration) and the cells are then incubated (5% CO2, 37° C.) for an additional 24 hrs.
Day 2, RNA Isolation and cDNA Synthesis: The cells are washed with 1× Phosphate Buffered Saline (PBS) once.
Day 3, Quantitative PCR Based Measurement of HCV RNA (Taqman Assay): Quantitative PCR analysis to measure HCV RNA expression from cDNA synthesized on Day 2 is performed using the ABI 9700 HT Sequence Detection System (Applied Biosystems) as previously described (Lohman et al, Science 285, 110-113, 1999). The data is analyzed and IC50s are determined using GraphPad Prism 4 software. Hits validated in the Replicon RNA Assay have IC50s<8.0 μM and show <30% inhibition of Cell Viability at a compound concentration of 50 μM (Cell Titer Glow Assay, cell viability assay conditions identical to HCV Replicon RNA Assay conditions).

Data set [1] is described as follows: CellTiter-Glo Cell Viability Assay. It counts as cell-based, human. The settings on record: human, Huh-Luc-Neo cells, read-out: Cytotoxicity*. How it is done: Day 0, Cell Seeding and Compound Treatment: Huh-Luc-Neo Cells are seeded at 25,000/well in an opaque-walled 96 plate with Growth Medium (DMEM phenol red free+PS+2 mM glutamine; 100 ul/well). The compounds to be tested for inhibition of cell viability are added to the experimental wells (10 μl/well at 10× assay concentration) and the cells are then incubated (5% CO2, 37° C.) for 48 h.
Day 2, Reagent Preparation and Assay: The CellTiter-Glo Buffer is thawed and equilibrated to room temperature prior to use. The lyophilized CellTiter-Glo Substrate is equilibrated to room temperature prior to use. 10 ml of CellTiter-Glo Buffer is transferred to 1 vial of CellTiter-Glo Substrate and mixed by gently with a Vortex. 100 μl of CellTiter-Glo Assay reagent (CellTiter-Glo Buffer+CellTiter-Glo Substrate Mixture) is added to each well. The well contents are mixed for 5 min. on an orbital shaker at room temperature to induce cell lysis and the luminescence is then measured using a luminometer.
(In general: Cellular ATP, detected with luciferase, serves as a proxy for viable cell number.)

On to `Cn1c(=O)cc(Sc2ccc(C(C)(C)C)cc2)c2ccccc21` [compound 013], for which the IC50 with HCV Replicon is 1 to 10 µM; with HCV RNA, under 1 µM. Besides, the IC50 at 48 h in data set [1] was over 100 µM.
In the same order, the values of `Cn1c(=O)cc(Sc2ccc(F)cc2)c2cc(F)ccc21` [compound 018] are 1 to 10 µM, 1 to 10 µM and over 100 µM.
Turning to `Cn1c(=O)cc(Sc2ccc(N)cc2)c2ccccc21` [compound 009], the IC50 with HCV Replicon and in the data set on HCV RNA was under 1 µM each time. For the same molecule, in data set [1], the IC50 at 48 h was over 100 µM.
For `COc1ccc2c(c1)c(Sc1ccc(N)cc1)cc(=O)n2C` [compound 030], the IC50 in the data set with HCV Replicon and in the data set on HCV RNA was under 1 µM in each case. In data set [1], the IC50 at 48 h fell in the range of 10 to 100 µM.
For `Cc1ccc2c(c1)c(Sc1ccc(Br)cc1)cc(=O)n2C` [compound 031], the IC50 in the data set on HCV Replicon and in the data set on HCV RNA was under 1 µM each time. For the same molecule, in data set [1], the IC50 at 48 h lay within 10 to 100 µM.
Regarding `Cn1c(=O)cc(Sc2ccc(N)cc2)c2cccnc21` [compound 019], the IC50 in the data set with HCV Replicon was under 1 µM; with HCV RNA, 1 to 10 µM. Besides, in data set [1], the IC50 at 48 h is over 100 µM.
In the same order, the values of `Cn1c(=O)cc(Sc2ccc(NC(=O)[C@H](Cc3ccccc3)NC(=O)OC(C)(C)C)cc2)c2ccccc21` [compound 022] are 1 to 10 µM, 1 to 10 µM and over 100 µM.
For `Cn1c(=O)cc(Sc2ccc(Br)cc2)c2ccccc21` [compound 001], in that order: 1 to 10 µM, under 1 µM and over 100 µM.
On to `Cc1ccc2c(c1)c(Sc1ccc(N)cc1)cc(=O)n2C` [compound 033], for which the IC50 in the data set with HCV Replicon and in the data set with HCV RNA was under 1 µM each time. Moreover, the IC50 at 48 h in data set [1] was over 100 µM.
For `COc1ccc2c(c1)c(Sc1ccc(C)cc1)cc(=O)n2C` [compound 029], the IC50 in the data set with HCV Replicon and in the data set on HCV RNA was under 1 µM throughout. Moreover, the IC50 at 48 h in data set [1] is over 100 µM.
Turning to `Cn1c(=O)cc(Sc2ccc(N)cc2)c2ccc(Cl)cc21` [compound 027], the IC50 in the data set with HCV Replicon and in the data set on HCV RNA was under 1 µM in each case. Further, the IC50 at 48 h in data set [1] fell in the range of 10 to 100 µM.
Take `Cc1ccc2c(c1)c(Sc1ccc(F)cc1)cc(=O)n2C` [compound 026]: the IC50 with HCV Replicon and in the data set on HCV RNA was under 1 µM each time. Besides, the IC50 at 48 h in data set [1] fell in the range of 10 to 100 µM.
Turning to `C[C@H](OCc1ccccc1)[C@@H](NC(=O)OC(C)(C)C)C(=O)Nc1ccc(Sc2cc(=O)n(C)c3ccccc23)cc1` [compound 023], the IC50 in the data set on HCV Replicon and in the data set on HCV RNA was 1 to 10 µM in each case. Further, in data set [1], the IC50 at 48 h is over 100 µM.
In the case of `Cc1ccc(Sc2cc(=O)n(C)c3ccc(F)cc23)cc1` [compound 016], the IC50 in the data set on HCV Replicon and with HCV RNA was 1 to 10 µM in each case. Besides, in data set [1], the IC50 at 48 h was over 100 µM.
For `Cn1c(=O)cc(Sc2ccc(Br)cc2)c2cc(Cl)ccc21` [compound 011], the IC50 in the data set with HCV Replicon and in the data set on HCV RNA was 1 to 10 µM throughout. In addition, in data set [1], the IC50 at 48 h was over 100 µM.
Turning to `Cn1c(=O)cc(Sc2ccc(Cl)cc2)c2ccccc21` [compound 002], the IC50 in the data set on HCV Replicon and in the data set on HCV RNA was 1 to 10 µM in each case. Also, in data set [1], the IC50 at 48 h was over 100 µM.
`COc1ccc(Sc2cc(=O)n(C)c3ccccc23)cc1` [compound 012]: the values for the IC50 in the data set on HCV Replicon and with HCV RNA were 1 to 10 µM and 10 to 100 µM, respectively. Moreover, the IC50 at 48 h in data set [1] was over 100 µM.
For `Cn1c(=O)cc(Sc2ccc(F)cc2)c2ccccc21` [compound 003], in that order: 1 to 10 µM, 1 to 10 µM and over 100 µM.
In the same order, the values of `Cc1ccc(Sc2cc(=O)n(C)c3ncccc23)cc1` [compound 020] are under 1 µM, 1 to 10 µM and over 100 µM.
Take `CC(=O)Nc1ccc(Sc2cc(=O)n(C)c3ccccc23)cc1` [compound 017]: the IC50 in the data set on HCV Replicon and with HCV RNA was 1 to 10 µM each time. The IC50 at 48 h in data set [1] was over 100 µM.
For the molecule `Cn1c(=O)cc(Sc2ccc(I)cc2)c2ccccc21` [compound 014], the IC50 was 1 to 10 µM with HCV Replicon and under 1 µM in the data set on HCV RNA. For the same molecule, the IC50 at 48 h in data set [1] was over 100 µM.
In the case of `Cn1c(=O)cc(Sc2cc(Cl)ccc2Cl)c2ccccc21` [compound 006], the IC50 in the data set on HCV Replicon lay within 10 to 100 µM; in the data set on HCV RNA, 1 to 10 µM. In addition, the IC50 at 48 h in data set [1] was over 100 µM.
For `CCn1c(=O)cc(Sc2ccc(Br)cc2)c2ccccc21` [compound 010], in that order: 1 to 10 µM, under 1 µM and over 100 µM.
In the same order, the values of `Cn1c(=O)cc(Sc2cccc(F)c2)c2ccccc21` [compound 007] are 1 to 10 µM, 1 to 10 µM and over 100 µM.
In the same order, the values of `Cn1c(=O)cc(Sc2ccc(NC(=O)[C@@H](NC(=O)OC(C)(C)C)C3CCCCC3)cc2)c2ccccc21` [compound 024] are under 1 µM, 1 to 10 µM and over 100 µM.
Regarding `Cc1ccc(Sc2cc(=O)n(C)c3cc(C)c(C)cc23)cc1` [compound 034], the IC50 in the data set on HCV Replicon and with HCV RNA was under 1 µM in each case. The IC50 at 48 h in data set [1] is over 100 µM.
Consider `Cc1ccc2c(c1)c(Sc1ccc(Cl)cc1)cc(=O)n2C` [compound 028], for which the IC50 in the data set on HCV Replicon and in the data set on HCV RNA was under 1 µM each time. Further, in data set [1], the IC50 at 48 h fell in the range of 10 to 100 µM.
Turning to `Cc1ccc(Sc2cc(=O)n(C)c3ccc(C)cc23)cc1` [compound 032], the IC50 with HCV Replicon and with HCV RNA was under 1 µM each time. Further, the IC50 at 48 h in data set [1] fell in the range of 10 to 100 µM.
For `Cc1cc2c(Sc3ccc(F)cc3)cc(=O)n(C)c2cc1C` [compound 037], the IC50 in the data set on HCV Replicon and in the data set with HCV RNA was under 1 µM in each case. For the same molecule, the IC50 at 48 h in data set [1] was over 100 µM.
For the molecule `Cc1ccc(NC(=S)Nc2ccc(Sc3cc(=O)n(C)c4ccc(C)cc34)cc2)cc1` [compound 036], the IC50 with HCV Replicon and in the data set with HCV RNA was 1 to 10 µM throughout. For the same molecule, the IC50 at 48 h in data set [1] is over 100 µM.
